# From US20130324493A1, “COMPOSITIONS COMPRISING NINGNANMYCIN AND USES THEREFOR” (North Carolina State University, priority 2012, published 2013)
# Like-named read-outs stand apart in the source and are kept apart here.
# How the values were obtained:
# Xanthomonas pruni = assay: Preliminary in vitro antibacterial study; assay type: cell-based; settings: ningnanmycin at 100 ug/ml
# rabbit [1] = settings: cited from earlier work
# X. translucent = assay: Preliminary in vitro antibacterial study; assay type: cell-based
# rat [2] = settings: cited from earlier work
# honey bee = settings: cited from earlier work
# creeping bentgrass = settings: field plots treated with ningnanmycin, 2010 and 2011
# green algae = settings: green algae, 72 h; cited from earlier work
# Pantoea ananatis = assay: Preliminary in vitro antibacterial study; assay type: cell-based; settings: ningnanmycin at 100 ug/ml
# [3] = test system: Magnaporthe poae (summer patch); assay type: cell-based; settings: preliminary experiment
# rabbit [4] = settings: cited from earlier work; remark: listed apart in the source
# [5] = test system: brown patch (Rhizoctonia solani AG2-2IIIB); assay: Preliminary field experiment, brown patch; assay type: in vivo; settings: creeping bentgrass
# [6] = test system: M. griesea (turf gray leaf pot); assay: Preliminary in vitro experiment; assay type: cell-based
# mammals = settings: Hu et al. 1997; cited from earlier work
# Fish = settings: species not given; cited from earlier work
# guinea pig = settings: cited from earlier work
# [7] = test system: Rhizoctonia solani (AG2-2IIIB); assay: In vitro activity; assay type: cell-based; settings: AG2-2IIIB causing brown patch on creeping bentgrass
# [8] = test system: Ophiosphaerella herpotricha (spring dead spot); assay: Preliminary in vitro experiment; assay type: cell-based
# P. aphanidermatum = assay: In vitro activity on turfgrass strains; assay type: cell-based, Pythium aphanidermatum
# earthworms = settings: cited from earlier work
# Colletotrichum cereale = assay: In vitro sensitivity assay (radial growth on fungicide-amended PDA); assay type: cell-based
# Experimental: (§1) Three isolates of S. homoeocarpa and two isolates of C. cereale were selected to evaluate ningnanmycin (Ningnanmycin 10WP, Deqiang Biological Co., LTD. Harbin, Helongjiang, China) in vitro activities using 5 three-fold dilutions from 0.81 to 0.01 μg a.i./ml. […] Based on preliminary experiments, five dilutions of triticonazole were used, ranging from 0.81 to 0.01 μg a.i/ml for isolates of S. homoeocarpa and from 6.25 to 0.01 μg a.i./ml for isolates of C. cereale. All isolates were prepared for long-term storage on pieces of dried filter paper maintained at −80° C. Filter paper sections containing each isolate were removed from −80° C. storage and placed on PDA amended with 0.05 μg/ml each of chloramphenicol, streptomycin, and tetracycline (PDA+++). After 3 days, mycelium-containing plugs (1×1 cm) were transferred to water agar for another 2 days. Then, water agar plugs (0.45 cm diameter) were cut from the periphery of the colony using a cork borer and placed on the center of Petri dishes containing non-amended PDA and PDA amended with the serial concentrations of each fungicide with three replicates per isolate. Radial growth was measured after three days (72 h) incubation at room temperature for isolates of S. homoeocarpa and seven days for isolates of C. cereale. Relative Growth (RG) was calculated by dividing colony diameter on amended PDA by that on the non-amended PDA. EC50 values were then calculated using the method described by Secor et al. (Fungicide resistance assays for fungal plant pathogens. Methods Mol Biol. 835:385-392, 2012). The in vitro sensitivity assay repeated twice and EC50 value of each isolates was determined as the mean of EC50 values from two assays.
# Sclerotinia homoeocarpa = assay: as above; assay type: cell-based; settings: Clarireedia homoeocarpa
# Experimental: as §1
# rat [9] = settings: cited from earlier work; remark: listed apart in the source
# anthracnose (C. cereale) = assay: Field efficacy test, control of anthracnose on putting green turf; assay type: in vivo, 'Dominant Plus' creeping bentgrass; settings: for Turf quality: 1-to-9 scale (9 = best), anthracnose trial; for anthracnose control (in words): 2010, August
# Acidovorax aveane = assay: Preliminary in vitro antibacterial study; assay type: cell-based; settings: ningnanmycin at 100 ug/ml
smiles,measurement,setting,value
"CNCC(=O)NC(CO)C(=O)NC1C(C(N)=O)OC(n2ccc(N)nc2=O)C(O)C1O [ningnanmycin, 4-sarcosinamido-L-serinamido-4-deoxy-β-D-pyranoglucuronamido]",in vitro activity,Xanthomonas pruni,did not show any in vitro activity
same,Irritation to skin,rabbit [1],no
same,in vitro activity,"X. translucent; ningnanmycin at 100 ug/ml, preliminary study",did not show any in vitro activity
same,activity against strains infecting turfgrass,X. translucent; ningnanmycin at 100 ppm,not been able to detect any activity
same,Acute toxicity Oral LD50,rat [2]; female,"12,100 mg/kg (female)"
same,Acute toxicity Oral LD50,rat [2]; male,"6,810 mg/kg (male)"
same,"Non-mammals, honey bee",honey bee,200 μg/bee
same,plant growth regulator effects,creeping bentgrass,no plant growth regulator effects were observed
same,Aquatic plants EC50,green algae,12.0 mg/L (72 h)
same,in vitro activity,Pantoea ananatis,did not show any in vitro activity
same,in vitro activity,[3],demonstrated in vitro activity
same,Irritation to eye,rabbit [4],no
same,efficacy against brown patch,[5],little to no efficacy
same,in vitro activity,[6],demonstrated in vitro activity
same,"carcinogenicity, reproductive toxicity, developmental effects",mammals,"no carcinogenicity, reproductive toxicity, or developmental effects have been observed"
same,toxicity to mammals,mammals,very low toxicity
same,Fish LC50 (96 h),Fish,">1,000 mg/L"
same,Sensitization,guinea pig,no
same,in vitro activity,[7],showed in vitro activity
same,in vitro activity,[8],demonstrated in vitro activity
same,in vitro activity,P. aphanidermatum; concentration not given,no in vitro activity
same,activity against strains infecting turfgrass,P. aphanidermatum; ningnanmycin at 100 ppm,not been able to detect any activity
same,adverse effects in non-target organisms,earthworms,no adverse effects were observed
same,EC50,"Colletotrichum cereale; 168 h, isolate ABR1, radial growth after seven days, mean of two assays",0.36 µg/mL
same,EC50,"Colletotrichum cereale; 168 h, isolate ABR12, radial growth after seven days, mean of two assays",0.24 µg/mL
same,EC50,"Colletotrichum cereale; read-out: mean EC50, mean of two isolates",0.3 µg/mL
same,EC50,"Sclerotinia homoeocarpa; 72 h, isolate 761SHME, radial growth after 72 h, mean of two assays",0.02 µg/mL
same,EC50,"Sclerotinia homoeocarpa; 72 h, isolate LWC 27, radial growth after 72 h, mean of two assays",0.01 µg/mL
same,EC50,"Sclerotinia homoeocarpa; 72 h, isolate PST4, radial growth after 72 h, mean of two assays",0.01 µg/mL
same,EC50,"Sclerotinia homoeocarpa; read-out: mean EC50, mean of three isolates",0.01 µg/mL
same,Acute toxicity Dermal LD50,rat [9],">2,000 mg/Kg mg/kg"
same,Turf quality,"anthracnose (C. cereale); Ningnanmycin 10WP 0.08 g/m^2, 7 d interval, Aug. 8, 2010",5
same,Turf quality,"anthracnose (C. cereale); Ningnanmycin 10WP 0.08 g/m^2, 7 d interval, Aug. 15, 2010",4
same,Turf quality,"anthracnose (C. cereale); Ningnanmycin 10WP 0.15 g/m^2, 7 d interval, Aug. 8, 2010",5
same,Turf quality,"anthracnose (C. cereale); Ningnanmycin 10WP 0.15 g/m^2, 7 d interval, Aug. 15, 2010",5
same,Turf quality,"anthracnose (C. cereale); Ningnanmycin 10WP 0.15 g/m^2, 10 d interval, Aug. 8, 2010",5
same,Turf quality,"anthracnose (C. cereale); Ningnanmycin 10WP 0.15 g/m^2, 10 d interval, Aug. 15, 2010",4
same,Turf quality,"anthracnose (C. cereale); Ningnanmycin 10WP 0.30 g/m^2, 10 d interval, Aug. 8, 2010",5
same,Turf quality,"anthracnose (C. cereale); Ningnanmycin 10WP 0.30 g/m^2, 10 d interval, Aug. 15, 2010",4
same,Turf quality,"anthracnose (C. cereale); Ningnanmycin 10WP 0.30 g/m^2, 14 d interval, Aug. 8, 2010",4
same,Turf quality,"anthracnose (C. cereale); Ningnanmycin 10WP 0.30 g/m^2, 14 d interval, Aug. 15, 2010",4
same,anthracnose control (in words),"anthracnose (C. cereale); 0.15 g/m^2, 7-day interval",satisfactory level of control
same,anthracnose control (in words),"anthracnose (C. cereale); 0.15 g/m^2, 14-day interval",lowest suppression of anthracnose but still provided significant suppression compared to the untreated
same,anthracnose control (in words),"anthracnose (C. cereale); 0.30 g/m^2, 7-day interval",highest level of anthracnose control
same,anthracnose control (in words),"anthracnose (C. cereale); 0.30 g/m^2, 14-day interval",lowest suppression of anthracnose but still provided significant suppression compared to the untreated
same,Anthracnose severity (%),"anthracnose (C. cereale); Ningnanmycin 10WP 0.08 g/m^2, 7 d interval, Aug. 1, 2011",16%
same,Anthracnose severity (%),"anthracnose (C. cereale); Ningnanmycin 10WP 0.08 g/m^2, 7 d interval, Aug. 8, 2011",4%
same,Anthracnose severity (%),"anthracnose (C. cereale); Ningnanmycin 10WP 0.08 g/m^2, 7 d interval, Aug. 15, 2011",15%
same,Anthracnose severity (%),"anthracnose (C. cereale); Ningnanmycin 10WP 0.08 g/m^2, 7 d interval, Jul. 25, 2011",20%
same,Anthracnose severity (%),"anthracnose (C. cereale); Ningnanmycin 10WP 0.15 g/m^2, 7 d interval, Aug. 1, 2011",9%
same,Anthracnose severity (%),"anthracnose (C. cereale); Ningnanmycin 10WP 0.15 g/m^2, 7 d interval, Aug. 8, 2011",3%
same,Anthracnose severity (%),"anthracnose (C. cereale); Ningnanmycin 10WP 0.15 g/m^2, 7 d interval, Aug. 15, 2011",9%
same,Anthracnose severity (%),"anthracnose (C. cereale); Ningnanmycin 10WP 0.15 g/m^2, 7 d interval, Jul. 25, 2011",17%
same,Anthracnose severity (%),"anthracnose (C. cereale); Ningnanmycin 10WP 0.15 g/m^2, 10 d interval, Aug. 1, 2011",18%
same,Anthracnose severity (%),"anthracnose (C. cereale); Ningnanmycin 10WP 0.15 g/m^2, 10 d interval, Aug. 8, 2011",8%
same,Anthracnose severity (%),"anthracnose (C. cereale); Ningnanmycin 10WP 0.15 g/m^2, 10 d interval, Aug. 15, 2011",17%
same,Anthracnose severity (%),"anthracnose (C. cereale); Ningnanmycin 10WP 0.15 g/m^2, 10 d interval, Jul. 25, 2011",21%
same,Anthracnose severity (%),"anthracnose (C. cereale); Ningnanmycin 10WP 0.30 g/m^2, 10 d interval, Aug. 1, 2011",20%
same,Anthracnose severity (%),"anthracnose (C. cereale); Ningnanmycin 10WP 0.30 g/m^2, 10 d interval, Aug. 8, 2011",3%
same,Anthracnose severity (%),"anthracnose (C. cereale); Ningnanmycin 10WP 0.30 g/m^2, 10 d interval, Aug. 15, 2011",15%
same,Anthracnose severity (%),"anthracnose (C. cereale); Ningnanmycin 10WP 0.30 g/m^2, 10 d interval, Jul. 25, 2011",16%
same,Anthracnose severity (%),"anthracnose (C. cereale); Ningnanmycin 10WP 0.30 g/m^2, 14 d interval, Aug. 1, 2011",14%
same,Anthracnose severity (%),"anthracnose (C. cereale); Ningnanmycin 10WP 0.30 g/m^2, 14 d interval, Aug. 8, 2011",6%
same,Anthracnose severity (%),"anthracnose (C. cereale); Ningnanmycin 10WP 0.30 g/m^2, 14 d interval, Aug. 15, 2011",13%
same,Anthracnose severity (%),"anthracnose (C. cereale); Ningnanmycin 10WP 0.30 g/m^2, 14 d interval, Jul. 25, 2011",20%
same,in vitro activity,Acidovorax aveane,did not show any in vitro activity
